Measured values published in US20240351959A1, “USE OF ETHYNYLPYRIDINE COMPOUNDS AS NITRIFICATION INHIBITORS” (BASF SE, priority 2021, published 2024).

Assays:
[1] = test system: nitrification; test: inhibition of nitrification in soil incubation (NI); conditions: soil incubated at 20° C., 14 days; for NI @ 0.1%: compound at 0.1% of nitrogen N; for NI @ 0.3%: compound at 0.3% of nitrogen N; for NI @ 1%: compound at 1% of nitrogen N
Procedure: The compounds of the invention have been tested as follows in terms of the inhibition of nitrification:
100 g soil is filled into 500 ml plastic bottles (e.g. soil sampled from the field) and is moistened to 50% water holding capacity. The soil is incubated at 20° C. for two weeks to activate the microbial biomass. 1 ml test solution, containing the compound of formula I in the appropriate concentration (usually 0.1, 0.3 or 1% of nitrogen N), or DMSO and 10 mg nitrogen in the form of ammoniumsulfate-N is added to the soil and everything mixed well. Bottles are capped but loosely to allow air exchange. The bottles are then incubated at 20° C. for 0 and 14 days.
For analysis, 300 ml of a 1% K2SO4-solution is added to the bottle containing the soil and shaken for 2 hours in a horizontal shaker at 150 rpm. Then the whole solution is filtered through a filter (Macherey-Nagel Filter MN 807%). Ammonium and nitrate content is then analyzed in the filtrate in an autoanalyzer at 550 nm (Merck, AA11).
The inhibition (NI® a specified concentration) is calculated as follows: […]

[2] = test system: nitrification; test: % NH4-N recovery from fertilized NH4-N in soil Limburgerhof; conditions: 20° C.
Procedure: The compounds according to the invention have been further tested in terms of their % NH4—N recovery from fertilized NH4—N.
The compounds according to general formula I were tested as follows in terms of the inhibition of nitrification:
100 g soil (soil Limburgerhof with pH(CaCl2) 6.8; 73% sand, 23% silt, 4% clay, which is classified according to FAO as a sandy loam) is filled into 500 ml plastic bottles and is moistened to 50% water holding capacity. The soil is incubated at 20° C. for two weeks prior to the experiments to activate the microbial biomass. 1 ml test solution, containing the compounds of formula I or the comparative compounds in the appropriate concentration (0.1, 0.3 or 1% (w/w) of fertilized NH4—N), and 10 mg nitrogen in the form of ammoniumsulfate-N(NH4—N) is added to the soil and everything mixed well. Unfertilized controls received 1 ml pure water. Bottles are capped but loosely to allow air exchange. The bottles are then incubated at 20° C. for 14 days and 28 days.
For analysis, 300 ml of a 1% K2SO4-solution is added to the bottle containing the soil and shaken for 2 hours in a horizontal shaker at 150 rpm. Then the whole solution is filtered through a filter (Macherey-Nagel Filter MN 807%). Ammonium content is then analyzed in the filtrate using an autoanalyzer. Ammonium was quantified via an indophenol blue dye at 660 nm.
The nitrification inhibition is expressed as % of NH4—N recovery from fertilized NH4—N(100%) after subtraction of unfertilized control soil. The number of replicates is 4.
For comparison of the % NH4—N recovery of the compound of the invention, i.e. Example 4, with the comparative compounds as shown above from different trials, the standard deviation of a common treatment of all trials with DMPP (3,4-dimethylpyrazole phosphate) was calculated. As the standard deviation was low, data from different trials were pooled together to compare the average % NH4—N recovery for the compound of the invention and the comparative compounds as shown above.

[3] = test system: N2O emission; test: reduction of N2O emission, potted corn plants in greenhouse soil; design: species or system Zea mais; conditions: 100 ppm ammonium sulfate, cumulated emissions over two weeks, relative to untreated but fertilized control
Procedure: Example 2 was additionally tested in terms of the reduction of N20 emission Corn seeds (Zea mais, cultivar “Shorty”) were planted 1 seed/pot in 8 cm pots in standard greenhouse soil (mixture of peat, loam and sand) and grown in a greenhouse at 20° C. and 60% humidity. Plants were grown for ten days in a completely randomized set-up. On day 6, plants were watered but not fertilized to 50% water holding capacity then left to dry out. On day ten, the plants were separated out and each pot set onto a plant saucer designed with an inner compartment for the pot and an outer ring that is filled with water. At time 0 water with or without 100 ppm ammonium sulfate and with or without the given concentration of nitrification inhibitor (1% and 0.3%) was applied to the plant such that the water holding capacity of the soil was around 50-60%. Then a gas sampling chamber was placed over the plant saucer such that the rim fit into the ring filled with water to create a gas-tight chamber and 20 cc air from the chamber were drawn into a syringe and immediately emptied in to a Vacutainer (Labco, 12 ml volume). […] Samples were analyzed in a Shimadzu 2014 GC equipped with an ECD system. Data was calculated as the cumulated emissions over the measurement period and the % reduction of N20 emissions relative to the untreated but fertilized control was calculated.

Row | SMILES | NI @ 0.1% [1] | NI @ 0.3% [1] | NI @ 1% [1] | % NH4—N recovery after 14 days ([2]; 0.1 wt.-% relative to NH4—N) | % NH4—N recovery after 14 days ([2]; 0.3 wt.-% relative to NH4—N) | % NH4—N recovery after 28 days ([2]; 0.3 wt.-% relative to NH4—N) | % NH4—N recovery after 14 days ([2]; 1 wt.-% relative to NH4—N) | % NH4—N recovery after 28 days ([2]; 1 wt.-% relative to NH4—N) | % reduction of N2O relative to control @ 0.3% ([3]; nitrification inhibitor 0.3%) | % reduction of N2O relative to control @ 1% ([3]; nitrification inhibitor 1%)
1 | C#Cc1ccc(Cl)nc1 [Example 3] | 68% | 84% | 94% |  |  |  |  |  |  | 
2 | C[Si](C)(C)C#Cc1ccc(Cl)cn1 [Comparative Example B] |  |  |  | 20.94% | 44.40% | 11.1% | 59.90% | 61.0% |  | 
3 | C#Cc1cc(Cl)ccn1 [Example 1] | 46% |  | 83% |  |  |  |  |  |  | 
4 | C#Cc1ccc(Cl)cn1 [Example 2] | 74% |  | 76% |  |  |  |  |  | 91% | 97%
5 | Clc1cccc(C(Cl)(Cl)Cl)n1 [Comparative Example, reference compound] |  | 35% | 54% |  |  |  |  |  |  | 
6 | C#Cc1ccc(Cl)cn1 [Example 4] |  |  |  | 74.00% | 68.50% | 59.0% | 72.00% | 56.0% |  | 
7 | C[Si](C)(C)C#Cc1ccccn1 [Comparative Example A] |  |  |  | 46.50% | 60.30% | 51.2% | 67.80% | 68.1% |  | 
